{
  "source": "paper PMC7206208",
  "about": "“In vivo data: treatment with the F11R/JAM-A peptide 4D decreases mortality and reduces the generation of atherosclerotic plaques in ApoE-deficient mice” (Data in Brief, 2020)",
  "key": {"[1]": {"test_system": "ApoE-/- mice", "test": "Chronic treatment of ApoE-/- mice: atherosclerotic plaques and physical appearance", "assay_type": "in vivo, mouse", "experimental": "Female Apo E^-/- mice (six weeks old) of a C57BL/6J background, (Jackson Laboratory, Bar Harbor, Me), were divided into two separately-housed groups. Group 1 was treated with peptide 4D by daily, intraperitoneal injections with peptide 4D (4.3 mg/200µl) for a 3 month period. Group 2 was injected daily with an equivalent amount of diluent vehicle (200µl of 0.9% saline) for the same 3- month period. All animals were fed a regular Rodent Diet (Calories provided by protein 28.1%, fat 12.13% and carbohydrates 59.8%) for two months, then the diet was switched to a Western-type diet (TD.88137 Adjusted Calories Diet (42% from fat) (0.15% cholesterol, 21% anhydrous milk fat) (Harlan Laboratories Inc.) to induce hypercholesterolemia for a period of one month, [2]. Following 3 month of injections with either the F11R peptide 4D or the vehicle, saline, the animals were euthanized. The aortas and hearts were isolated, dissected, and the atherosclerotic lesions were analyzed.\nFollowing euthanasia, the aortas were prepared for dissection and the aortic arches were photographed. Following dissection, en face lesion surface area assay was performed on the aortas and hearts as previously described, [4], [5]. The dissected aortas were stained with Oil-Red-O stain modified from previously described methods, [4], [6]. […] The total intimal lesion area and the necrotic core area (NE) per cross section were quantified by taking the average of 6 sections spaced 30 µm apart, beginning at the base of the aortic root. The necrotic core areas, acellular/anuclear areas (negative for hematoxylin-positive nuclei, white areas of lesion) were measured per cross section from the same slides where total intimal lesion area was measured. […] Lesion areas or necrotic areas (white areas of lesion) where measured and summarized using software Image-J. The aortas were fixed in PBS/4% formaldehyde for 3 days, washed in PBS followed by staining with 1.8% Oil-Red-O in 60% isopropanol for 15 min at 22°C, then de-stained in 60% isopropanol for 5 min. […]"}, "[2]": {"test_system": "inflamed endothelial cells", "conditions": "in culture; the authors' earlier work; cited from earlier work", "from_the_text": "The data in this article focus on the F11 Receptor (F11R/JAM-A; Junctional Adhesion Molecule-A; JAM-A, F11R), a cell adhesion protein constitutively expressed on the membrane surface of circulating platelets and localized within the tight junctions of healthy endothelial cells (ECs). Previous reports have shown that F11R/JAM-A plays a critical role in the adhesion of platelets to an inflamed endothelium due to its’ pathological expression on the luminal surface of the cytokine-inflamed endothelium. Since platelet adhesion to an inflamed endothelium is an early step in the development of athero ..."}, "[3]": {"conditions": "mouse, in vivo", "experimental": "The concentration of peptide 4D was measured in the plasma at various time points, and is expressed in µg/ml. […] Time points of 15 min, followed by 1, 2, 4, 5, and 24 hours after the administration of peptide 4D were selected to generate the concentration of Cmax, Tmax, area under the plasma concentration time curve (AUC), drug clearance, terminal elimination half-life, and volume of distribution.\nDrug pharmacokinetics (PK) in vivo is a key requirement for the evaluation of the stability and availability of peptide 4D, as a potential compound for use in the next phase of our investigations. Accordingly, PK data of peptide 4D were obtained by the Services of Bio Quant, San Diego, CA. Thus far, a single dose of the F11R peptide 4D and a time perfusion course were performed in Balb/c mice. Time points of 15 min, followed by 1, 2, 4, 5, and 24 hr after the administration of peptide 4D to animals, were selected to generate concentration vs time curves thereby allowing for the determination of the PK parameters of maximal concentration (Cmax), maximal time (Tmax), area under the plasma concentration time curve (AUC), drug clearance, terminal elimination half-life, and volume of distribution of peptide 4D."}, "[4]": {"test_system": "human platelets (in platelet-rich plasma)", "test": "ADP-induced platelet aggregation in platelet-rich plasma (turbidimetric)", "assay_type": "cell-based", "conditions": "for maximal platelet aggregation [%] in response to 10 µM ADP: PRP, 37°C, 2 min pre-incubation, mean ± SD, n=3-7", "experimental": "Fig. 4 Test of the effect of peptide 4D on the ADP-induced aggregation of human platelets (in platelet-rich plasma). Fig. 4A. This figure depicts a representative tracing of platelet aggregation induced by ADP (2µM) in the presence of peptide 4D (P4D; 500µM, final concentration), in comparison to the ADP-induced platelet aggregation in the absence of peptide 4D (control). Fig. 4B. This figure depicts a representative tracing of platelet aggregation induced by ADP (10µM) in the presence of peptide 4D (P4D, 500µM final concentration), in comparison to the ADP-induced platelet aggregation in the absence of peptide 4D (control).\nPlatelet aggregation in platelet-rich plasma (PRP) was carried-out by using the turbidimetric method in a platelet aggregometer (Chronolog, Haverstown, PA). Aliquots of the PRP were maintained at 37°C. The effect of peptide 4D on platelet aggregation was examined by utilizing three concentrations of peptide 4D (final concentrations of 100µM, 250µM and 500 µM). The PRP was incubated for 2 minutes with peptide 4D prior to the addition of ADP at final concentrations of 2µM (subthreshold concentration) or 10µM, for the initiation of platelet aggregation."}, "[5]": {"test_system": "platelets", "test": "M.Ab.F11-induced platelet aggregation in vitro", "assay_type": "cell-based", "conditions": "peptide 4D 0.3 mg (670 µg/ml), from dose-response"}, "[6]": {"test_system": "inflamed endothelium", "test": "Platelet adhesion to walls of blood vessels, intravital microscopy", "assay_type": "in vivo, mice", "conditions": "intravital microscopy videos, arteriole and venule", "from_the_text": "The F11 Receptor (F11R/JAM-A; Junctional Adhesion Molecule-A; JAM-A; F11R) is a cell adhesion protein present on the surface of circulating platelets and located within the tight junctions of endothelial and epithelial cells. The data presented here confirm in-vivo evidence for the critical role of F11R/JAM-A in the formation of atherosclerotic plaques in ApoE^-/- mice and provide further strong experimental support for our work in Babinska et al. (2019). […] These mice were euthanized, and at the same time, two mice obtained from the peptide 4D-treated group were randomly-selected and euthanized, and their tissues examined histologically in comparison to the controls. […] The data presented in Fig. 3, compare the overall health and physical appearance of 10^1/2 months old ApoE^-/- mice following their termination of a 4- month injection period with either peptide 4D or the vehicle. […] Data of Fig. 5 display the pharmacokinetic analysis (PK) of peptide 4D in vivo. Data display by videos: videos depicting platelet adhesion to the walls of blood vessels using the Intravital Microscopy System are provided and available in this article as the Supplemental Files. […]"}},
  "note": "Non-standard residues stand in square brackets, D forms with d. Residues, ends and D or L forms follow the SMILES beside them.",
  "data": [
    {"compound": "CC(C)[C@H](NC(=O)[C@H](CO)NC(=O)[C@H](N)CCCCN)C(=O)N[C@H](C(=O)N[C@H](CCCNC(=N)N)C(=O)N[C@@H](CCC(=O)O)C(=O)N[C@@H](CC(=O)O)C(=O)N[C@H](C(=O)NCC(=O)N[C@H](C(=O)N[C@@H](Cc1ccc(O)cc1)C(=O)N[C@H](C(=O)N[C@@H](CS)C(N)=O)[C@@H](C)O)[C@@H](C)O)[C@@H](C)O)[C@@H](C)O", "note": "[peptide 4D] (H-[dK]SVT[dR]EDTGTYTC-NH2; N-terminus and C-terminus assumed)", "values": [
      {"measurement": "plaque accumulation in the aortic arch and the whole aorta", "setting": "[1]; daily i.p. 215 mg/kg (4.3 mg/200 µl) for 3 months, versus saline controls, two mice per group, Fig. 2", "result": "much diminished plaque accumulation"},
      {"measurement": "external physical appearance", "setting": "[1]; daily i.p. for 3 months, versus saline controls, Fig. 1", "result": "healthy"},
      {"measurement": "skin lesion on the chest", "setting": "[1]; daily i.p. for 4 months, then stopped, observed at 10 1/2 months of age, Fig. 3B", "result": "lack of lesion"},
      {"measurement": "adhesion of platelets to the inflamed endothelial cells", "setting": "[2]", "result": "could be blocked"},
      {"measurement": "Tmax", "setting": "[3]", "result": 18, "unit": "min"},
      {"measurement": "half-life", "setting": "[3]", "result": "> 210", "unit": "min"},
      {"measurement": "effect on ADP-induced platelet aggregation", "setting": "[4]; Fig. 4 and Table 1, ADP 2 or 10 µM, peptide 100-500 µM", "result": "lack of an inhibitory effect"},
      {"measurement": "maximal platelet aggregation [%] in response to 10 µM ADP", "setting": "[4]; P4D 100 µM", "result": "70 ± 12", "unit": "%"},
      {"measurement": "maximal platelet aggregation [%] in response to 10 µM ADP", "setting": "[4]; P4D 250 µM", "result": "73 ± 13", "unit": "%"},
      {"measurement": "maximal platelet aggregation [%] in response to 10 µM ADP", "setting": "[4]; P4D 500 µM", "result": "74 ± 20", "unit": "%"},
      {"measurement": "inhibition of M.Ab.F11-induced platelet aggregation", "setting": "[5]", "result": "completely inhibited"},
      {"measurement": "adhesion of platelets onto the inflamed endothelium", "setting": "[6]", "result": "significant blockade"}
    ]}
  ]
}
